Assay results reported in patent US9216999B2, “Substituted pyrrolo[2,3-h][1,6]naphthyridines and compositions thereof as JAK inhibitors” (priority 2011, dated 2015).
Where two headings read alike, the source gives them in different places.

What was measured:
Format in all cases: biochemical
JAK1 = JAK1 (Homo sapiens (Human), UniProt P23458); assay: Enzyme assay (Assay Example^a 1), JAK1; conditions: ATP 100 μM
JAK3 = JAK3 (Homo sapiens (Human), UniProt P52333); assay: Enzyme assay (Assay Example^a 1), JAK3
Tyk2 = Tyk2 (Homo sapiens (Human), UniProt P29597); assay: Enzyme assay (Assay Example^a 1), Tyk2; conditions: ATP 100 μM
Tyk2, sequence (P29597 whole entry): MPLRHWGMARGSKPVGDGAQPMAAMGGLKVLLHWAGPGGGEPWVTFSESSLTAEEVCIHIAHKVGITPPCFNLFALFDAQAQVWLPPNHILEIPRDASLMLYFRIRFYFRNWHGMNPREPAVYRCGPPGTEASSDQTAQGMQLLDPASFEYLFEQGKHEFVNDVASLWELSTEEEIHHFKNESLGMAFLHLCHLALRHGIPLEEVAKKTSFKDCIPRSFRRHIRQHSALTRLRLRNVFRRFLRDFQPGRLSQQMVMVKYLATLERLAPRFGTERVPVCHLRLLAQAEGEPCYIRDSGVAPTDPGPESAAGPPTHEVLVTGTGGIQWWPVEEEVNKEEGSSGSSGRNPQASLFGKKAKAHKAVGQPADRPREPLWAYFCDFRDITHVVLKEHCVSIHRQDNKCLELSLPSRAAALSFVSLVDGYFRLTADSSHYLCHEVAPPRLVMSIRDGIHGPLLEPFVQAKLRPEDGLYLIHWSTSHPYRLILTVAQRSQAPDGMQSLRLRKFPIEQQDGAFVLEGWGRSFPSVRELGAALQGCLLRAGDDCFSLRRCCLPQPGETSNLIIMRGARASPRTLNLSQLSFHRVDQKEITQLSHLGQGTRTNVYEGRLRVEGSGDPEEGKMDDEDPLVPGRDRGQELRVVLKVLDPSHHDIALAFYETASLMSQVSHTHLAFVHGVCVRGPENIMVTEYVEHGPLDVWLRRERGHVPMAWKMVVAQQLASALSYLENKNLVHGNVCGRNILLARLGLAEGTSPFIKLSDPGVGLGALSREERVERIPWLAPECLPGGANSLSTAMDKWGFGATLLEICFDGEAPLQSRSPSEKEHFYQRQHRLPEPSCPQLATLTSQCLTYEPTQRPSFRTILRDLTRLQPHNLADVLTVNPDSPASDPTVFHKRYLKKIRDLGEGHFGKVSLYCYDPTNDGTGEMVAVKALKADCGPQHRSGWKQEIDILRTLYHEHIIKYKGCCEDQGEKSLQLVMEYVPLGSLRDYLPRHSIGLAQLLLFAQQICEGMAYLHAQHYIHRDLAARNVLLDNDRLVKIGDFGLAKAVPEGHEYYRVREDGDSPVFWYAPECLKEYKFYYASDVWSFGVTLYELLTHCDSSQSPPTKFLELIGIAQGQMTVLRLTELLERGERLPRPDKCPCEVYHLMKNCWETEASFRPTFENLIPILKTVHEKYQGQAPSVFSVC

JAK3, sequence (P52333 whole entry): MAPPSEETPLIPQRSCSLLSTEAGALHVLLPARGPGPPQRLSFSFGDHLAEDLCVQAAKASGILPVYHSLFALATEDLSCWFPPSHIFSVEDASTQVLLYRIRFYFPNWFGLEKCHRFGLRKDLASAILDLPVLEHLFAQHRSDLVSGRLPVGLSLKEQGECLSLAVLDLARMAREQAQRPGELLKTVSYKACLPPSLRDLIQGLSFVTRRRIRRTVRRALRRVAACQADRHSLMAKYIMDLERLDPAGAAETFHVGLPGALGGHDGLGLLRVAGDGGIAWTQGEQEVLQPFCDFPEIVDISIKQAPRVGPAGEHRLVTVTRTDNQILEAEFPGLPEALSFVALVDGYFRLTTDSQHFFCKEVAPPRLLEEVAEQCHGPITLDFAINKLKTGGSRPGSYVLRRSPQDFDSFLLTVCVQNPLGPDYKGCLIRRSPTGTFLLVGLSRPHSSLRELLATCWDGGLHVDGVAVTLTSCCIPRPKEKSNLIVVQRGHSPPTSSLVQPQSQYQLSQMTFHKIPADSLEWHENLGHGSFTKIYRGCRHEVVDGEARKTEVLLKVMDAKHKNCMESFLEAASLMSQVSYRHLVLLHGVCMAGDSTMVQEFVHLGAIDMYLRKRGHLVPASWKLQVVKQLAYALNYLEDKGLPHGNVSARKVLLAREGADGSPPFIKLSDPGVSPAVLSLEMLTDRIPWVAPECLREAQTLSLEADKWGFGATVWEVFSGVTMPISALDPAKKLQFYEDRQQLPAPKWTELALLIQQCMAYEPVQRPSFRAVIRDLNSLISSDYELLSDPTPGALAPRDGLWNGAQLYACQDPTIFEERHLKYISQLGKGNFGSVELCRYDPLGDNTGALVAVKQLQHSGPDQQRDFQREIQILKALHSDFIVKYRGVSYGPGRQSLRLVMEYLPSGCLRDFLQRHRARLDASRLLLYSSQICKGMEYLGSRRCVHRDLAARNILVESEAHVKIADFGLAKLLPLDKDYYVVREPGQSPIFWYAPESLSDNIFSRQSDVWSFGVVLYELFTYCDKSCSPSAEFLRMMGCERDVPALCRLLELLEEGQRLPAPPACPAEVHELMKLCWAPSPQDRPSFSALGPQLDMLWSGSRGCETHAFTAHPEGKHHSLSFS

| Compound | IC50 (JAK1) [µM] | IC50 (JAK3; ATP 100 μM) [µM] | IC50 (JAK1; Table^a 154) [µM] | IC50 (Tyk2; Table^a 154) [µM] | IC50 (Tyk2) [µM] | other results |
| --- | --- | --- | --- | --- | --- | --- |
| O=C(OCc1ccccc1)N1CCCC(c2ncn3cnc4[nH]ccc4c23)C1 (racemic) [compound 3] | 0.057 | 1.4 | – | – | – | – |
| c1ccc(CN2CCCC(c3nnn4cnc5[nH]ccc5c34)C2)cc1 (racemic) [compound 16] | – | – | 0.28 | – | – | IC50 (JAK3; ATP 100 μM, Table^a 154): 5.3 µM |
| O=C(Nc1nncs1)N1CCCC(c2nnn3cnc4[nH]ccc4c23)C1 (racemic) [compound 20] | – | – | 0.019 | 0.42 | – | – |
| FC(F)(F)c1ccc(CN2CCCC(c3nnn4cnc5[nH]ccc5c34)C2)cc1 (racemic) [compound 23] | – | – | 0.55 | – | – | – |
| OC(CNC[C@H]1CC[C@H](c2nnn3cnc4[nH]ccc4c23)CC1)c1ccccc1 (mixture of isomers) [compound 186, 2-({[trans-4-(7H-pyrrolo[3,2-e][1,2,3]triazolo[1,5-c]pyrimidin-1-yl)cyclohexyl]methyl}amino)-1-phenylethanol] | – | – | – | 0.044 | – | – |
| O=C(OCc1ccccc1)N1CCC(c2nnn3cnc4[nH]ccc4c23)C1 (racemic) [compound 211, Benzyl 3-(7H-pyrrolo[3,2-e][1,2,3]triazolo[1,5-c]pyrimidin-1-yl)pyrrolidine-1-carboxylate] | – | – | 0.12 | – | – | – |
| CC(c1ccccc1)N1CCC(c2nnn3cnc4[nH]ccc4c23)CC1 (racemic) [compound 245, 1-[1-(1-phenylethyl)piperidin-4-yl]-7H-pyrrolo[3,2-e][1,2,3]triazolo[1,5-c]pyrimidine] | – | > 1 | – | – | > 1 | – |
| Clc1ccc(CN[C@H]2CC[C@@H](c3nnn4cnc5[nH]ccc5c34)CC2)cc1 [197a, cis-N-(4-chlorobenzyl)-4-(7H-pyrrolo[3,2-e][1,2,3]triazolo[1,5-c]pyrimidin-1-yl)cyclohexanamine] | – | – | 0.016 | 0.15 | – | IC50 (JAK3; ATP 100 μM, Table^a 154): > 1 µM |
| Clc1ccc(CN[C@H]2CC[C@H](c3nnn4cnc5[nH]ccc5c34)CC2)cc1 [197b, trans-N-(4-chlorobenzyl)-4-(7H-pyrrolo[3,2-e][1,2,3]triazolo[1,5-c]pyrimidin-1-yl)cyclohexanamine] | – | – | 0.0054 | 0.11 | – | IC50 (JAK3; ATP 100 μM, Table^a 154): 0.52 µM |
| O[C@H](CN[C@H]1CC[C@H](c2nnn3cnc4[nH]ccc4c23)CC1)c1ccccc1 [203b, (S)-2-{[trans-4-(7H-pyrrolo[3,2-e][1,2,3]triazolo[1,5-c]pyrimidin-1-yl)cyclohexyl]amino}-1-phenylethanol] | – | – | – | 0.33 | – | – |
| O[C@@H](CN[C@H]1CC[C@H](c2nnn3cnc4[nH]ccc4c23)CC1)c1ccccc1 [204b, (R)-2-{[trans-4-(7H-pyrrolo[3,2-e][1,2,3]triazolo[1,5-c]pyrimidin-1-yl)cyclohexyl]amino)-1-phenylethanol] | – | – | – | 0.35 | – | – |
| FC(F)CN[C@H]1CC[C@H](c2nnn3cnc4[nH]ccc4c23)CC1 [399b, trans-N-(2,2-difluoroethyl)-4-(7H-pyrrolo[3,2-e][1,2,3]triazolo[1,5-c]pyrimidin-1-yl)cyclohexanamine] | 0.0075 | > 1 | – | – | 0.2 | – |
| FC(F)(F)C(N[C@H]1CC[C@H](c2nnn3cnc4[nH]ccc4c23)CC1)C(F)(F)F [400b, trans-N-(1,1,1,3,3,3-hexafluoropropan-2-yl)-4-(7H-pyrrolo[3,2-e][1,2,3]triazolo[1,5-c]pyrimidin-1-yl)cyclohexanamine] | 0.042 | > 1 | – | – | 0.84 | – |
| Cc1nc(C2CCCCC2)c2c3cc[nH]c3ncn12 [compound 1] | 0.23 | – | – | – | 0.59 | IC50 (JAK3): 1.4 µM |
| CC1CCN(C(=O)CC#N)CC1c1nnn2cnc3[nH]ccc3c12 (stereo not drawn) [compound 12] | – | – | 0.021 | 0.91 | – | – |
| FC(F)(F)c1cc(CN2CCC(c3nnn4cnc5[nH]ccc5c34)CC2)cc(C(F)(F)F)c1 [compound 47] | – | – | 0.78 | > 1 | – | – |
| CC(C)(C)OC(=O)N[C@H]1CC[C@H](c2nnn3cnc4[nH]ccc4c23)CC1 [compound 59] | – | – | – | > 1 | – | IC50 (JAK3; ATP 100 μM, Table^a 154): > 1 µM |
| N[C@H]1CC[C@H](c2nnn3cnc4[nH]ccc4c23)CC1 [compound 61] | – | – | – | 0.44 | – | – |
| COC[C@H]1CC[C@H](c2nnn3cnc4[nH]ccc4c23)CC1 [compound 62] | – | – | – | 0.14 | – | IC50 (JAK3; ATP 100 μM, Table^a 154): 0.47 µM |
| CO[C@H]1CC[C@H](c2nnn3cnc4[nH]ccc4c23)CC1 [compound 63] | – | – | 0.011 | – | – | – |

| Compound | IC50 (JAK1) [µM] | IC50 (JAK3; ATP 100 μM) [µM] | IC50 (JAK1; Table^a 154) [µM] | IC50 (Tyk2; Table^a 154) [µM] | IC50 (Tyk2) [µM] | other results |
| --- | --- | --- | --- | --- | --- | --- |
| c1cc2c(ncn3nnc(C4CC5CCC4C5)c23)[nH]1 (stereo not drawn) [compound 65] | – | – | – | 0.025 | – | IC50 (JAK3; ATP 100 μM, Table^a 154): 0.15 µM |
| FC(F)(F)c1ccc(CN2CCC(c3[nH]c(=S)n4cnc5[nH]ccc5c34)CC2)cc1 [compound 86] | – | – | 0.02 | – | – | – |
| Fc1ccc(CNC[C@H]2CC[C@H](c3nnn4cnc5[nH]ccc5c34)CC2)cc1C(F)(F)F [compound 112] | – | – | 0.0049 | – | – | – |
| Fc1ccc(NC[C@H]2CC[C@H](c3nnn4cnc5[nH]ccc5c34)CC2)c(C(F)(F)F)c1 [compound 117] | – | – | 0.039 | – | – | IC50 (JAK3): > 1 µM |
| Cc1cc(OC(F)(F)F)ccc1NC1CCC(c2nnn3cnc4[nH]ccc4c23)CC1 (stereo not drawn) [compound 133] | – | – | 0.12 | > 1 | – | IC50 (JAK3): > 1 µM |
| COc1ccc(CN2CCC(c3nnn4cnc5[nH]ccc5c34)CC2)cn1 [compound 170, 1-{1-[(6-methoxypyridin-3-yl)methyl]piperidin-4-yl}-7H-pyrrolo[3,2-e][1,2,3]triazolo[1,5-c]pyrimidine] | – | – | 0.021 | > 1 | – | IC50 (JAK3; ATP 100 μM, Table^a 154): 0.52 µM |
| FC(F)(F)CNC[C@H]1CC[C@H](c2nnn3cnc4[nH]ccc4c23)CC1 [compound 188, N-{[trans-4-(7H-pyrrolo[3,2-e][1,2,3]triazolo[1,5-c]pyrimidin-1-yl)cyclohexyl]methyl}-2,2,2-trifluoroethanamine] | – | – | 0.0012 | 0.063 | – | IC50 (JAK3; ATP 100 μM, Table^a 154): 0.11 µM |
| CN(C)S(=O)(=O)c1ccc2c(c1)CCN2C[C@H]1CC[C@H](c2nnn3cnc4[nH]ccc4c23)CC1 [compound 190, 1-{[trans-4-(7H-pyrrolo[3,2-e][1,2,3]triazolo[1,5-c]pyrimidin-1-yl)cyclohexyl]methyl}-N,N-dimethylindoline-5-sulfonamide] | – | – | 0.022 | 0.61 | – | IC50 (JAK3; ATP 100 μM, Table^a 154): > 1 µM |
| N#Cc1cc(CN2CCC(c3nnn4cnc5[nH]ccc5c34)CC2)ccc1F [compound 223, 5-{[4-(7H-pyrrolo[3,2-e][1,2,3]triazolo[1,5-c]pyrimidin-1-yl)piperidin-1-yl]methyl}-2-fluorobenzonitrile] | 0.015 | 0.94 | – | – | > 1 | – |
| N#C/C(=C\N1CCC(c2nnn3cnc4[nH]ccc4c23)CC1)c1ccc(Cl)cc1 [compound 235, (Z)-3-[4-(7H-pyrrolo[3,2-e][1,2,3]triazolo[1,5-c]pyrimidin-1-yl)piperidin-1-yl]-2-(4-chlorophenyl)acrylonitrile] | 0.056 | > 1 | – | – | > 1 | – |
| Cc1ccc(CN2CCC(c3nnn4cnc5[nH]ccc5c34)CC2)s1 [compound 236, 1-{1-[(5-methylthiophen-2-yl)methyl]piperidin-4-yl}-7H-pyrrolo[3,2-e][1,2,3]triazolo[1,5-c]pyrimidine] | 0.0068 | 0.45 | – | – | > 1 | – |
| NC(=O)c1ccc(CN2CCC(c3nnn4cnc5[nH]ccc5c34)CC2)cc1 [compound 241, 4-{[4-(7H-pyrrolo[3,2-e][1,2,3]triazolo[1,5-c]pyrimidin-1-yl)piperidin-1-yl]methyl}benzamide] | 0.046 | > 1 | – | – | > 1 | – |
| OCCN(Cc1ccccc1)C[C@H]1CC[C@H](c2nnn3cnc4[nH]ccc4c23)CC1 [compound 268, 2-({[trans-4-(7H-pyrrolo[3,2-e][1,2,3]triazolo[1,5-c]pyrimidin-1-yl)cyclohexyl]methyl}(benzyl)amino)ethanol] | 0.0044 | 0.72 | – | – | 0.12 | – |
| O[C@@H](CNC[C@H]1CC[C@H](c2nnn3cnc4[nH]ccc4c23)CC1)c1ccccc1 [compound 276, (R)-2-({[trans-4-(7H-pyrrolo[3,2-e][1,2,3]triazolo[1,5-c]pyrimidin-1-yl)cyclohexyl]methyl}amino)-1-phenylethanol] | – | – | – | – | 0.032 | – |
| O[C@H](CNC[C@H]1CC[C@H](c2nnn3cnc4[nH]ccc4c23)CC1)c1ccccc1 [compound 277, (S)-2-({[trans-4-(7H-pyrrolo[3,2-e][1,2,3]triazolo[1,5-c]pyrimidin-1-yl)cyclohexyl]methyl}amino)-1-phenylethanol] | – | – | – | – | 0.05 | – |
| O=C1NOC[C@H]1NC[C@H]1CC[C@H](c2nnn3cnc4[nH]ccc4c23)CC1 [compound 288, (R)-4-({[trans-4-(7H-pyrrolo[3,2-e][1,2,3]triazolo[1,5-c]pyrimidin-1-yl)cyclohexyl]methyl}amino)isoxazolidin-3-one] | 0.046 | – | – | – | 0.37 | – |
| CC1(C)CC1NC[C@H]1CC[C@H](c2nnn3cnc4[nH]ccc4c23)CC1 (stereo partly drawn) [compound 290, N-{[trans-4-(7H-pyrrolo[3,2-e][1,2,3]triazolo[1,5-c]pyrimidin-1-yl)cyclohexyl]methyl}-2,2-dimethylcyclopropanamine] | 0.0076 | 0.5 | – | – | 0.27 | – |
| OC1(CNC[C@H]2CC[C@H](c3nnn4cnc5[nH]ccc5c34)CC2)CCCCC1 [compound 313, 1-[({[trans-4-(7H-pyrrolo[3,2-e][1,2,3]triazolo[1,5-c]pyrimidin-1-yl)cyclohexyl]methyl)amino)methyl]cyclohexanol] | 0.0084 | > 1 | – | – | 0.51 | – |
| Fc1ccc(C2(NC[C@H]3CC[C@H](c4nnn5cnc6[nH]ccc6c45)CC3)COC2)cc1 [compound 322, N-{[trans-4-(7H-pyrrolo[3,2-e][1,2,3]triazolo[1,5-c]pyrimidin-1-yl)cyclohexyl]methyl}-3-(4-fluorophenyl)oxetan-3-amine] | 0.0013 | 0.2 | – | – | 0.43 | – |
| COCCN(C)C[C@H]1CC[C@H](c2nnn3cnc4[nH]ccc4c23)CC1 [compound 325, N-{[trans-4-(7H-pyrrolo[3,2-e][1,2,3]triazolo[1,5-c]pyrimidin-1-yl)cyclohexyl]methyl}-2-methoxy-N-methylethanamine] | 0.011 | > 1 | – | – | 0.88 | – |
